Laboratory results: publication PMC11881437 (Molecular Medicine, 2025)

Experiments:
[1] = tested on: CT26 cell induced solid tumor; assay: CT26 syngeneic colorectal tumor model; type: in vivo, BALB/c mice; settings: for tumor volume: 10 days, Orientin 5 mg/kg b.w/day i.v., 5FU 5 mg/kg b.w i.v. alternate day; for tumor volume / survival (Kaplan Meier): vs control; for tumor tissue histopathology: H&E; for number of blood vessels in tumor tissue: H&E sections; for CD44+/CD133+ cells in tumor tissue / HIF1α and VEGFA expression in tumor: immunofluorescence; for survival (Kaplan Meier): tumor bearing mice
Description: To set up therapeutic in vivo model, CT26 cells (2 × 10^6 cells/animal), syngeneic to BALB/c mice were injected subcutaneously to the right hind limb of the each animal. Palpable tumor was formed after 10 days. […] Six mice from each group were sacrificed on day 11 and the others were left for performing survivability assay using Kaplan–Meier method (Hajra et al. [2018a]).
Various organs and solid tumors collected after sacrificing the mice were embedded into paraffin after 10% neutral buffered formalin fixation. 4 μm sections were prepared and used for histopathological study. Standard Hematoxylin and Eosin (H&E) staining protocol was used and sections were visualized under light microscope (DM 1000, Leica, Germany) (Hajra et al. [2018a]).
Immunofluorescence assay was carried out as described previously (Shimizu et al. [2023]). Tissue sections were blocked with 3% BSA and incubated with primary antibodies like HIF1α, VEGFA, CD44 (Thermo Fisher Scientific, USA) and CD133 (Abcam, USA) at room temperature for 2 h. Alexa fluor 488 and Alexa fluor 594 tagged secondary (Thermo Fisher Scientific, USA) antibodies were added to all the tissue sections for 1 h followed by DAPI staining and images were visualized under fluorescence microscope (Olympus BX53, Japan).

[2] = tested on: CSC enriched spheres (CES) derived from HCT116 cells; assay: Tumorosphere (CES) diameter and number; type: cell-based, human; settings: 24 h, 5FU vs control, Orientin and combination vs 5FU
Description: (§1) HCT116 CRC cells were grown in ultra-low attachment plate in 3dGRO™ Spheroid Medium (Sigma-Aldrich, USA) for 7 days. Spheroids enriched with CSCs were considered as CSC enriched spheres (CESs) or commonly referred as tumorospheres. After 7 days, tumorospheres were subjected to different treatments for 24 h, as per experimental protocol. Media of tumorospheres of all the treatment groups were collected, centrifuged to remove the cell debris and suspended spheres, supernatants were collected and vacuum concentrated. These supernatants were referred as conditioned medium (CM) and were stored at − 20 °C until use.

[3] = Hepatic oxidative parameters and liver/kidney histopathology, 10 days treatment; type: in vivo, BALB/c mice; settings: 5 mg/kg b.w i.v.; for kidney histopathology / liver histopathology: H&E
Description: To determine the toxicity of only Orientin treatment in various doses, the mice were divided into five groups. Each group contained six animals (n = 6). Each animal of the vehicle control group (VC) was left untreated, while, mice of other four groups were administered Orientin intravenously with 1 mg/kg b.w, 3 mg/kg b.w, 5 mg/kg b.w and 10 mg/kg b.w dosage respectively for 28 days. […] All the treatments were continued for 10 days. On day 11 all the mice were sacrificed and different parameters were studied.
Values of all the parameters were calculated with respect to the amount of total protein present in liver homogenates.
Various organs and solid tumors collected after sacrificing the mice were embedded into paraffin after 10% neutral buffered formalin fixation. 4 μm sections were prepared and used for histopathological study.

[4] = tested on: chick chorioallantoic membrane; assay: Chick chorioallantoic membrane (CAM) assay with conditioned medium of CES; settings: CM of treated CES, day 4 vs day 1
Description: HCT116 CRC cells were grown in ultra-low attachment plate in 3dGRO™ Spheroid Medium (Sigma-Aldrich, USA) for 7 days. Spheroids enriched with CSCs were considered as CSC enriched spheres (CESs) or commonly referred as tumorospheres. After 7 days, tumorospheres were subjected to different treatments for 24 h, as per experimental protocol. Media of tumorospheres of all the treatment groups were collected, centrifuged to remove the cell debris and suspended spheres, supernatants were collected and vacuum concentrated. These supernatants were referred as conditioned medium (CM) and were stored at − 20 °C until use. To investigate the role of CSC on angiogenesis, a modified chick chorioallantoic membrane assay was carried out. Briefly, 100 µl CM of treated and untreated spheres were mixed with 1.5 mg/ml type I collagen (Gibco, USA). 10 µl of the mixture were loaded on the piece of 13 mm Thermanox discs (Nunc, Denmark) and permitted to get polymerize. The disc was then applied to the chorioallantoic membrane of a 4 days-old embryo. After 72 h of incubation, the area around the loaded disc was photographed with a digital camera, and the numbers of newly formed vessels were counted by two observers in a double-blind manner (Min et al. [2004]).

[5] = tested on: CD44+/CD133+ cell population in HIF1α transfected HCT116 derived tumorospheres; assay: Flow cytometry of CD44+/CD133+ cells in CES from HIF1α transfected HCT116 cells; type: cell-based, human; settings: transfected control 28.9%
Description: (§2) HCT116 cells were transiently transfected with HA-HIF1α-pcDNA3 plasmid (Addgene, USA, Plasmid #18949) by using lipofectamineTM 2000 (Thermo Fisher Scientific, USA) according to the manufacturer’s instructions. After 24 h of transfection, those cells were subjected to various experiments.
Percentages of CD44^+/CD133^+ cell population were determined within tumorospheres and HIF1α positive cells were determined within the CD44^+/CD133^+ cell population using a flow cytometer (BD LSRFortessa™ X-20) and analyzed by BD FACSDiva™ software.

[6] = tested on: CES from HIF1α transfected HCT116 cells; assay: Diameter and number of CES from HIF1α transfected HCT116 cells; type: cell-based, human
Description: as §1, §2

OCT4, NANOG and SOX2 = assay: Western blot of stemness factors in sorted CD44+/CD133+ cells; type: cell-based, human; settings: 24 h, compared to 5FU treated group
Source text: CD44^+/CD133^+ cells were isolated using MACS LS column (Miltenyi Biotec, USA) after leveled with CD44 and CD133 antibody conjugated with microbeads (Miltenyi Biotec, USA) by following manufacture’s protocol and subjected to further analysis. Cells expressing both CD44 and CD133 were isolated using magnetic cell sorter (MACS) (Guerriero et al. [2017]).
Protein samples were extracted from treated and untreated cells and subjected to western blot analysis by standard protocol (Bhowmik et al. [2013]). Cells were incubated with Brefeldin A (10 µg/ml) for 4 h before harvesting to determine VEGFA expression. Briefly, cells were lysed with RIPA buffer [50 mmol/L Tris–HCl (pH 7.8), 150 mmol/L NaCl, 1% Triton X-100, 0.1% SDS, 0.5% sodium deoxycholate, and 1 mmol/L EDTA] containing complete protease inhibitor cocktail. Equal amount of protein was electrophoresed on SDS-PAGE and electro transferred onto polyvinylidene difluoride (PVDF) membranes using Bio-Rad mini gel apparatus. […] Signals were detected with the ECL system (Promega, USA) and images were captured in iBright™ CL1500 Imaging System.

SMILES	tumor volume [1]	tumor tissue histopathology [1]	number of blood vessels in tumor tissue [1]	CD44+/CD133+ cells in tumor tissue [1]	HIF1α and VEGFA expression in tumor [1]	survival (Kaplan Meier) [1]	diameter of spheres [2]	number of spheres [2]	hepatic LPO, ROS and NO [3]	hepatic GSH and activity of GST, GPx, SOD and CAT ([3]; 5FU vs vehicle control, combination vs 5FU)	kidney histopathology [3]	liver histopathology [3]	number of blood vessels formed in CAM [4]	CD44+/CD133+ cell population [5] [%]	diameter of spheres [6]	number of spheres [6]	protein expression of OCT4, NANOG and SOX2 (OCT4, NANOG and SOX2)
O=c1[nH]cc(F)c(=O)[nH]1 [5FU, 5-Fluorouracil, reference compound]	decrease in the tumor volume	cell numbers were found to be reduced	increasing blood vessels number	increased	increase	increased life span	significantly increased	significantly increased	induce	reduced	distorted Bowman’s capsule, glomeruli, blood and cellular infiltration	distorted central vein, necrosis, cellular and blood infiltration	increase in number of blood vessel formation	–	–	–	–
O=c1cc(-c2ccc(O)c(O)c2)oc2c([C@@H]3O[C@H](CO)[C@@H](O)[C@H](O)[C@H]3O)c(O)cc(O)c12 [Orientin]	decrease in the tumor volume	lost their compactness	reduced	reduction	decreased	increased life span	significant decreases	significant decreases	–	–	did not induce any toxicity	remained normal	Non-significant change	16.4	decrease	decrease	downregulated
